For 47 compounds, IC50 results are on record in patent US10421718B2, “EBNA1 inhibitors and their method of use” (priority 2013, dated 2019).

The target in this assay is T1, His-EBNA1 (DNA binding domain of EBNA1, amino acids 459-607) (Epstein-Barr virus, UniProt P03211).
T1 construct: made in house; host or cells: E. coli
T1 sequence (P03211 459-607): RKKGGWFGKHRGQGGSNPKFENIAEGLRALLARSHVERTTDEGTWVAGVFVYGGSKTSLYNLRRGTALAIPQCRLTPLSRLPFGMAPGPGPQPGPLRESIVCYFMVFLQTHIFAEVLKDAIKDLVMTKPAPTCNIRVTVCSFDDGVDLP
The assay can be described thus: Inhibition of 5′-biotin-oPL4624 binding to His-EBNA1 using Alpha Screen technology. To be noted: Alpha Screen Activity (IC50, inhibition of 5′-biotin-oPL4624 binding to His-EBNA1), 15 nM His-EBNA1, 0.2 nM bt-oPL4624, 2 hr room temperature. The gist of the method:
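His-tagged EBNA1 DNA-binding domain (aa 459-607, E. coli-expressed) at 15 nM with 0.2 nM biotinylated self-complementary oligo, streptavidin donor and nickel acceptor beads, in 25 mM Tris pH 7.2, 160 mM NaCl, 1 mM MgCl2. Compound 3.2 nM-100 μM final; AlphaScreen read after 2 h at room temperature, one-site dose-response fit.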
The term IC50 denotes the concentration that inhibits the measured activity by half. Read a low IC50 as greater potency in that assay. In turn, `CN(C)C1CCN(c2c(C#Cc3ccccc3)cccc2C(=O)O)C1` (centres unmarked) [Entry 103, 2-(3-(dimethylamino)pyrrolidin-1-yl)-3-(phenylethynyl)benzoic acid] showed an IC50 of 10 to 100 µM.
Then `O=C(O)c1cccc(C#Cc2ccccc2)c1N1CCC(C(=O)O)C1` (centres unmarked) [Entry 104, 1-(2-carboxy-6-(phenylethynyl)phenyl)pyrrolidine-3-carboxylic acid], with 10 to 100 µM; and `O=C(O)c1cccc(C#Cc2ccccc2)c1N1CC[C@H](O)C1` [Entry 105, (S)-2-(3-hydroxypyrrolidin-1-yl)-3-(phenylethynyl)benzoic acid], with 100 to 1000 µM.
Then `O=C(O)c1cccc(C#Cc2ccccc2)c1N1CCCC1` [Entry 106, 3-(phenylethynyl)-2-(pyrrolidin-1-yl)benzoic acid], with 10 to 100 µM; and `O=C(O)c1cccc(C#Cc2ccccc2)c1N1CCNCC1` [Entry 107, 3-(phenylethynyl)-2-(piperazin-1-yl)benzoic acid], with 10 to 100 µM.
Then `O=C(O)c1cccc(C#Cc2ccccc2)c1NCc1ccccc1` [Entry 108, 2-(benzylamino)-3-(phenylethynyl)benzoic acid], with 10 to 100 µM; and `O=C(O)c1cccc(C#Cc2ccccc2)c1-n1cc(-c2ccccc2)nn1` [Entry 109, 2-(4-phenyl-1H-1,2,3-triazol-1-yl)-3-(2-phenylethynyl)benzoic acid], with 10 to 100 µM; and `COc1cccc(-c2cn(-c3c(C#Cc4ccccc4)cccc3C(=O)O)nn2)c1` [Entry 110, 2-(4-(3-methoxyphenyl)-1H-1,2,3-triazol-1-yl)-3-(phenylethynyl)benzoic acid], with 10 to 100 µM.
`O=C(O)c1cccc(C#Cc2ccccc2)c1-n1cc(-c2cccnc2)nn1` [Entry 111, 3-(phenylethynyl)-2-(4-(pyridin-3-yl)-1H-1,2,3-triazol-1-yl)benzoic acid] had an IC50 of 10 to 100 µM.
`O=C(O)c1cccc(C#Cc2ccccc2)c1-n1cc(CCCO)nn1` [Entry 112, 2-(4-(3-hydroxypropyl)-1H-1,2,3-triazol-1-yl)-3-(phenylethynyl)benzoic acid] had an IC50 of 10 to 100 µM.
In turn, `CN(C)S(=O)(=O)NC(=O)c1cccc(C#Cc2ccccc2)c1-n1cccc1` [Entry 113, N-(Dimethylsulfamoyl)-3-(2-phenylethynyl)-2-(1H-pyrrol-1-yl)benzamide] had an IC50 of 1 to 10 µM.
`CN(C)S(=O)(=O)NC(=O)c1cccc(C#Cc2ccc(F)cc2)c1-n1cccc1` [Entry 114, N-(Dimethylsulfamoyl)-3-[2-(4-fluorophenyl)ethynyl]-2-(1H-pyrrol-1-yl)benzamide] showed an IC50 of 1 to 10 µM.
Consider `O=C(NS(=O)(=O)N1CCOCC1)c1cccc(C#Cc2ccccc2)c1-n1cccc1` [Entry 115, N-(morpholine-4-sulfonyl)-3-(2-phenylethynyl)-2-(1H-pyrrol-1-yl)benzamide], for which the IC50 lay within 100 to 1000 µM.
Take `O=C(NS(=O)(=O)N1CCS(=O)(=O)CC1)c1cccc(C#Cc2ccccc2)c1-n1cccc1` [Entry 116]: the 50% inhibitory concentration (IC50) lay in the range of 10 to 100 µM.
As to `CS(=O)(=O)NC(=O)c1cccc(C#Cc2ccc(F)cc2)c1-n1cccc1` [Entry 117, 3-[2-(4-fluorophenyl)ethynyl]-N-methanesulfonyl-2-(1H-pyrrol-1-yl)benzamide], the IC50 fell in the range of 10 to 100 µM.
Then `NS(=O)(=O)NC(=O)c1cccc(C#Cc2ccccc2)c1-n1cccc1` [Entry 118, 3-(phenylethynyl)-2-(1H-pyrrol-1-yl)-N-sulfamoylbenzamide], with 10 to 100 µM; and `COc1ccc(-c2c(C#Cc3ccccc3)cccc2C(=O)O)cc1` [Entry 119, 2-(4-methoxyphenyl)-3-(2-phenylethynyl)benzoic acid], with 1 to 10 µM; and `COc1cccc(-c2c(C#Cc3ccccc3)cccc2C(=O)O)c1` [Entry 120, 2-(3-methoxyphenyl)-3-(2-phenylethynyl)benzoic acid], with 1 to 10 µM.
In the case of `COc1ccccc1-c1c(C#Cc2ccccc2)cccc1C(=O)O` [Entry 121, 2-(2-methoxyphenyl)-3-(2-phenylethynyl)benzoic acid], the IC50 lay in the range of 10 to 100 µM.
Then `O=C(O)c1cccc(C#Cc2ccccc2)c1-c1cnc2ccccc2c1` [Entry 122, 3-(2-phenylethynyl)-2-(quinolin-3-yl)benzoic acid], with 10 to 100 µM; and `O=C(O)c1cccc(C#Cc2ccccc2)c1C1CC1` [Entry 123, 2-cyclopropyl-3-(2-phenylethynyl)benzoic acid], with 1 to 10 µM.
Then `O=C(O)c1cccc(C#Cc2ccccc2)c1-c1ccccc1` [Entry 124, 2-phenyl-3-(2-phenylethynyl)benzoic acid], with 10 to 100 µM; and `Cc1ccc(-c2c(C#Cc3ccccc3)cccc2C(=O)O)cc1` [Entry 125, 2-(4-methylphenyl)-3-(2-phenylethynyl)benzoic acid], with 1 to 10 µM.
`COc1ccc(-c2c(C#Cc3ccccc3)cccc2C(=O)O)cn1` [Entry 126, 2-(6-methoxypyridin-3-yl)-3-(2-phenylethynyl)benzoic acid] returned an IC50 of 10 to 100 µM.
For `CN(C)c1ccc(-c2c(C#Cc3ccccc3)cccc2C(=O)O)cn1` [Entry 127, 2-[6-(dimethylamino)pyridin-3-yl]-3-(2-phenylethynyl)benzoic acid], the 50% inhibitory concentration (IC50) fell in the range of 10 to 100 µM.
In the case of `O=C(O)c1cccc(C#Cc2ccccc2)c1-c1cccc(CO)c1` [Entry 128, 2-[3-(hydroxymethyl)phenyl]-3-(2-phenylethynyl)benzoic acid], the IC50 is 10 to 100 µM.
Then `O=C(O)c1cccc(C#Cc2ccccc2)c1-c1ccc2cc[nH]c2c1` [Entry 129, 2-(1H-indol-6-yl)-3-(2-phenylethynyl)benzoic acid], with less than 1 µM; and `O=C(O)c1cccc(C#Cc2ccccc2)c1-c1ccc(CO)cc1` [Entry 130, 2-[4-(hydroxymethyl)phenyl]-3-(2-phenylethynyl)benzoic acid], with 10 to 100 µM.
Then `O=C(O)c1cccc(C#Cc2ccccc2)c1-c1ccc2occc2c1` [Entry 131, 2-(1-benzofuran-5-yl)-3-(2-phenylethynyl)benzoic acid], with 10 to 100 µM.
Then `O=C(O)c1cccc(C#Cc2ccccc2)c1-c1ccc2sccc2c1` [Entry 132, 2-(1-benzothiophen-5-yl)-3-(2-phenylethynyl)benzoic acid], with 10 to 100 µM; and `Cn1ccc2cc(-c3c(C#Cc4ccccc4)cccc3C(=O)O)ccc21` [Entry 133, 2-(1-methyl-1H-indol-5-yl)-3-(2-phenylethynyl)benzoic acid], with 1 to 10 µM.
For `CS(=O)(=O)Nc1cccc(-c2c(C#Cc3ccccc3)cccc2C(=O)O)c1` [Entry 134, 2-(3-methanesulfonamidophenyl)-3-(2-phenylethynyl)benzoic acid], the IC50 was 1 to 10 µM.
Take `O=C(O)c1cccc(C#Cc2ccccc2)c1-c1ccc2ccccc2c1` [Entry 135, 2-(naphthalen-2-yl)-3-(2-phenylethynyl)benzoic acid]: the concentration for half-maximal inhibition (IC50) was 1 to 10 µM.
On to `Cn1ccc2ccc(-c3c(C#Cc4ccccc4)cccc3C(=O)O)cc21` [Entry 136, 2-(1-methyl-1H-indol-6-yl)-3-(2-phenylethynyl)benzoic acid], for which the IC50 was in the range of 1 to 10 µM.
`O=C(O)c1cccc(C#Cc2ccccc2)c1-c1ccccc1S(=O)(=O)NCCO` [Entry 137, 2-{2-[(2-hydroxyethyl)sulfamoyl]phenyl}-3-(2-phenylethynyl)benzoic acid] registered an IC50 of 10 to 100 µM.
Then `O=C(NC1CC1)c1ccc(-c2c(C#Cc3ccccc3)cccc2C(=O)O)cc1` [Entry 138, 2-[4-(cyclopropylcarbamoyl)phenyl]-3-(2-phenylethynyl)benzoic acid], with 10 to 100 µM.
Then `Cn1ncc2ccc(-c3c(C#Cc4ccccc4)cccc3C(=O)O)cc21` [Entry 139, 2-(1-methyl-1H-indazol-6-yl)-3-(2-phenylethynyl)benzoic acid], with 10 to 100 µM.
Consider `O=C(O)c1cccc(C#Cc2cccc(O)c2)c1-c1cnc2ccccc2c1` [Entry 140, 3-((3-hydroxyphenyl)ethynyl)-2-(quinolin-3-yl)benzoic acid], for which the IC50 fell in the range of 1 to 10 µM.
Then `O=C(O)c1cccc(C#CCCCO)c1-c1cnc2ccccc2c1` [Entry 141, 3-(5-hydroxypent-1-ynyl)-2-(quinolin-3-yl)benzoic acid], with 10 to 100 µM; and `COc1ccc(C#Cc2cccc(C(=O)O)c2-c2cnc3ccccc3c2)cc1` [Entry 142, 3-((4-methoxyphenyl)ethynyl)-2-(quinolin-3-yl)benzoic acid], with 10 to 100 µM; and `O=C(O)c1cccc(C#Cc2cnc3cnccn23)c1-c1cnc2ccccc2c1` [Entry 143, 3-(imidazo[1,2-a]pyrazin-3-ylethynyl)-2-(quinolin-3-yl)benzoic acid], with 1 to 10 µM.
As for `COC/C=C/c1cccc(C(=O)O)c1-n1cccc1` [Entry 144, 3-[(1E)-3-methoxyprop-1-en-1-yl]-2-(1H-pyrrol-1-yl)benzoic acid], the IC50 was in the range of 1 to 10 µM.
Then `O=C(O)c1cccc(/C=C/c2ccccc2)c1-n1cccc1` [Entry 145, 3-[(E)-2-phenylethenyl]-2-(1H-pyrrol-1-yl)benzoic acid], with 10 to 100 µM.
For `O=C(O)c1cccc(/C=C/c2ccc(F)cc2)c1-n1cccc1` [Entry 146, 3-[(E)-2-(4-fluorophenyl)ethenyl]-2-(1H-pyrrol-1-yl)benzoic acid], the IC50 was 10 to 100 µM.
In turn, `O=C(O)c1cccc(CCc2ccccc2)c1-n1cccc1` [Entry 147, 3-(2-phenylethyl)-2-(1H-pyrrol-1-yl)benzoic acid] gave an IC50 of 10 to 100 µM.
Then `O=C(O)c1cccc(CCc2ccccc2)c1N1CCCC1` [Entry 148, 3-(2-phenylethyl)-2-(pyrrolidin-1-yl)benzoic acid], with 10 to 100 µM; and `O=C(O)c1cccc(CCc2ccc(F)cc2)c1-n1cccc1` [Entry 149, 3-[2-(4-fluorophenyl)ethyl]-2-(1H-pyrrol-1-yl)benzoic acid], with 10 to 100 µM.
